In US11180767B2, “Protease deficient filamentous fungal cells and methods of use thereof” (GLYKOS FINLAND OY, priority 2012, dated 2021):
Non-standard residues stand in square brackets, D forms with d. Residues, ends and D or L forms follow the SMILES beside them. *: point of attachment. Sta = CC(C)C[C@H](N)[C@@H](O)CC(=O)O; Isovaleryl = CC(C)CC(=O)*

Key:
aspartic proteases = assay: IgG degradation by pepstatin A affinity purified aspartic proteases; format: biochemical, Trichoderma reesei; details: 10 μM pepstatin A; pH 5.5, 37°C, 20 hours
Protocol: The T. reesei fed batch fermentation supernatant (15 ml) was used to batch bind proteases to the resin in 35 ml of buffer containing 50 mM sodium acetate, 0.2 M NaCl, pH 3.0. The column was washed with the same binding buffer and bound protein was removed with elution buffer (50 mM Tris-HCL, 1 M NaCl, pH 8.5). Fractions of 0.5 ml were collected. In total 42 μg of protease was purified. The peak fraction contained 0.04 μg/μl protein. 30 μl of each fraction was mixed with 6 μl of Laemmli sample buffer containing β-mercaptoethanol. The samples were heated at 95° C. for 5 minutes before being loaded into a 4-15% PAGE gel (BioRad mini-protean TGX precast gel) along with a broad range prestained molecular weight marker (BioRad). The gel was run in SDS PAGE running buffer for 30 minutes at 100 V, and then stained with GelCode (Thermo Scientific) blue stain.
Protein (0.8 μg) from the peak fraction (F3) was then incubated with IgG (50 μg ml) in sodium citrate buffer (50 mM, pH 5.5) at 37° C. for 20 hours (FIG. 2). The protein was incubated either in the presence or absence of 10 μM pepstatin A. The antibody mixture was combined with Laemmli sample buffer and heated at 95° C. for 5 minutes. These samples were then loaded into a 4-15% PAGE gel (BioRad mini-protean TGX precast gel) along with a broad range prestained molecular weight marker (BioRad). […]

[1] = test system: SIP purified proteases (PEP2, PEP3, PEP4, PEP5, GAP1, SLP2); assay: Protease activity of SIP purified fractions against casein with inhibitors (EnzChek); format: biochemical, Trichoderma reesei; details: pH 5.5
Protocol: Protease activity was then tested against casein both in the presence and absence of protease inhibitors. Protease activity against casein was tested using the EnzChek protease assay kit (Molecular probes #E6638, green fluorescent casein substrate). The working stock solution was prepared by diluting the stock to 10 μg ml in 50 mM sodium citrate, pH 5.5. The purified protease fractions (10 μl) were diluted with […] of sodium citrate, pH 5.5. 100 μl of the diluted substrate was combined with the diluted protease fractions in a 96 well sample plate. The plate was then covered and kept at 37° C. for one to three hours. Fluorescence readings were taken at one, two, and three hours with a Varioskan fluorescent plate reader (Thermo Scientific) using 485 nm excitation and 530 nm emission.
The SIP inhibitor peptide, pepstatin A, LIP peptide, SBTI, and chymostatin were used as inhibitors. […] SIP, LIP, and pepstatin A were used at a concentration of 60 μM, and SBTI was used at a concentration of 200 μg/ml.

For `CC(C)CC(=O)N[C@H](C(=O)N[C@H](C(=O)N[C@@H](CC(C)C)[C@@H](O)CC(=O)N[C@@H](C)C(=O)N[C@@H](CC(C)C)[C@@H](O)CC(=O)O)C(C)C)C(C)C` [pepstatin A] (Isovaleryl-VV[Sta]A[Sta]-OH), the “IgG degradation by aspartic proteases” value (aspartic proteases) was “inhibited”, the proteases inhibited ([1]; SIP, LIP, pepstatin A 60 μM, SBTI 200 μg/ml) was “inhibited only aspartic proteases” and the “inhibition of SIP purified protease activity against casein” value ([1]; FIG. 11) was “a large portion of the SIP protease activity was inhibited”.
